Experiment [1] concerns COC Apt-AuNP (biotin-ended COC aptamer) (DNA, aptamer) AGGAATTCAGATCTCCCTGCAGTTCGAGGAAGAATAGACCTGCCTTCTAATAGCTCGAGGAGCTCAGGATCCCG
The experiment is described as follows: competitive lateral flow assay.

The test system of experiment [2] is MET Apt-AuNP (biotin-ended MET aptamer) (DNA, aptamer) AGGAATTCAGATCTCCCTGCAGAAAACAGACCACCCACTTTGAATCCACTTGACTCGAGGAGCTCAGGATCCCG
The experiment is described as follows: competitive lateral flow assay.

For experiment [3], the system named is MET aptamer (DNA, aptamer) AGGAATTCAGATCTCCCTGCAGAAAACAGACCACCCACTTTGAATCCACTTGACTCGAGGAGCTCAGGATCCCG
The experiment is described as follows: isothermal titration calorimetry. Particulars: 100 mM NaCl, 2.7 mM KCl, 2 mM MgCl2.

In experiment [4] the test system is COC aptamer (DNA, aptamer) AGGAATTCAGATCTCCCTGCAGTTCGAGGAAGAATAGACCTGCCTTCTAATAGCTCGAGGAGCTCAGGATCCCG
The experiment is described as follows: isothermal titration calorimetry. The settings on record: 100 mM NaCl, 2.7 mM KCl, 2 mM MgCl2. (ITC needs no label: the signal is the heat of the interaction.)

Read-outs that look alike come from different tables or passages of the source.

On to `CCCCCc1cc(O)c2c(c1)OC(C)(C)[C@@H]1CCC(C)=C[C@@H]21`, for which the binding entry in experiment [1] and in experiment [2] was “no” each time.
The term Kd denotes the equilibrium constant for the complex coming apart. Higher therefore signals weaker binding. In experiment [3], `CN[C@@H](C)Cc1ccccc1` had a Kd of 0.57 µM. Further, the binding entry in experiment [1] (synthetic saliva, gold nanoparticle conjugate, COC-BSA test line) is “no”; in experiment [2], “yes”.
With `COC(=O)[C@H]1[C@@H](OC(=O)c2ccccc2)C[C@@H]2CC[C@H]1N2C`, the Kd in experiment [4] amounted to 0.306 µM. Moreover, the binding result in experiment [1] (synthetic saliva, gold nanoparticle conjugate, COC-BSA test line, positive at 5.0 ng/mL to 1.0 µg/mL) is reported as “yes”; in experiment [2] it was “no”.
With `COc1ccc2c3c1O[C@H]1[C@@H](O)C=C[C@H]4[C@@H](C2)N(C)CC[C@@]341`, the binding result in experiment [1] and in experiment [2] was “no” in each case.
